What was measured:
Assay in all cases: relative viability (nuclei count vs DMSO), 5 days (fraction); higher = more cells survive
NCI-H2085 = test system: NCI-H2085
In short: (§1)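 Dosing by pin tool came one day after lung cancer cell lines were seeded in 1536-well plates, using either one drug or a fixed anchor-drug dose plus five library-drug doses (not always all listed) in √10 steps. After 5 days, nuclei were counted on 4× images. Relative viability is treated-well nuclei count divided by vehicle-well nuclei count, and values are medians of duplicate plates.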

HCC-44 = test system: HCC-44
In short: as §1

NCI-H727 = test system: NCI-H727
In short: as §1

NCI-H2405 = test system: NCI-H2405
In short: as §1

NCI-H358 = test system: NCI-H358
In short: as §1

EPLC-272H = test system: EPLC-272H
In short: as §1

NCI-H1792 = test system: NCI-H1792
In short: as §1

NCI-H1395 = test system: NCI-H1395
In short: as §1

SK-LU-1 = test system: SK-LU-1
In short: as §1

HCC-15 = test system: HCC-15
In short: as §1

HCC-366 = test system: HCC-366
In short: as §1

HCC-827 = test system: HCC-827
In short: as §1

Q: Which relative viability (NCI-H2085; first compound 50 µM) does the source give for O=C(O)CCCCC(CCSCc1ccccc1)SCc1ccccc1 (stereo unspecified) [CPI-613] + N=C(N)NC(=N)NCCc1ccccc1 [Phenformin] (partner 250 µM) here?
A: 0.701

Q: And the relative viability (NCI-H2085; first compound 158.11 µM)?
A: 0.295

Q: What about the relative viability (NCI-H2085; first compound 500 µM) of the same compound?
A: 0.0903

Q: What about the relative viability (HCC-44; first compound 5 µM) of the same compound?
A: 0.15

Q: What about the relative viability (HCC-44; first compound 15.81 µM) of the same compound?
A: 0.195

Q: And the relative viability (HCC-44; first compound 50 µM)?
A: 0.185

Q: What about the relative viability (HCC-44; first compound 158.11 µM) of the same compound?
A: 0.268

Q: And the relative viability (HCC-44; first compound 500 µM)?
A: 0.248

Q: What about the relative viability (NCI-H727; first compound 5 µM) of the same compound?
A: 0.548

Q: And the relative viability (NCI-H727; first compound 15.81 µM)?
A: 0.693

Q: What about the relative viability (NCI-H727; first compound 50 µM) of the same compound?
A: 0.62

Q: What about the relative viability (NCI-H727; first compound 158.11 µM) of the same compound?
A: 0.353

Q: What about the relative viability (NCI-H727; first compound 500 µM) of the same compound?
A: 0.0983

Q: What about the relative viability (NCI-H2405; first compound 5 µM) of the same compound?
A: 0.394

Q: And the relative viability (NCI-H2405; first compound 15.81 µM)?
A: 0.367

Q: What about the relative viability (NCI-H2405; first compound 50 µM) of the same compound?
A: 0.392

Q: And the relative viability (NCI-H2405; first compound 158.11 µM)?
A: 0.396

Q: What about the relative viability (NCI-H2405; first compound 500 µM) of the same compound?
A: 0.371

Q: And the relative viability (NCI-H358; first compound 15.81 µM)?
A: 0.297

Q: What about the relative viability (NCI-H358; first compound 50 µM) of the same compound?
A: 0.31

Q: And the relative viability (NCI-H358; first compound 158.11 µM)?
A: 0.172

Q: What about the relative viability (NCI-H358; first compound 500 µM) of the same compound?
A: 0.017

Q: And the relative viability (EPLC-272H; first compound 5 µM)?
A: 0.286

Q: And the relative viability (EPLC-272H; first compound 15.81 µM)?
A: 0.26

Q: And the relative viability (EPLC-272H; first compound 50 µM)?
A: 0.309

Q: What about the relative viability (EPLC-272H; first compound 158.11 µM) of the same compound?
A: 0.279

Q: And the relative viability (EPLC-272H; first compound 500 µM)?
A: 0.0144

Q: And the relative viability (NCI-H1792; first compound 5 µM)?
A: 0.332

Q: What about the relative viability (NCI-H1792; first compound 50 µM) of the same compound?
A: 0.236

Q: What about the relative viability (NCI-H1792; first compound 158.11 µM) of the same compound?
A: 0.205

Q: What about the relative viability (NCI-H1792; first compound 500 µM) of the same compound?
A: 0.0809

Q: And the relative viability (NCI-H1395; first compound 5 µM)?
A: 0.419

Q: And the relative viability (NCI-H1395; first compound 15.81 µM)?
A: 0.427

Q: What about the relative viability (NCI-H1395; first compound 50 µM) of the same compound?
A: 0.433

Q: And the relative viability (NCI-H1395; first compound 158.11 µM)?
A: 0.457

Q: What about the relative viability (NCI-H1395; first compound 500 µM) of the same compound?
A: 0.397

Q: And the relative viability (SK-LU-1; first compound 5 µM)?
A: 0.547

Q: What about the relative viability (SK-LU-1; first compound 15.81 µM) of the same compound?
A: 0.479

Q: What about the relative viability (SK-LU-1; first compound 50 µM) of the same compound?
A: 0.642

Q: What about the relative viability (SK-LU-1; first compound 158.11 µM) of the same compound?
A: 0.248

Q: And the relative viability (SK-LU-1; first compound 500 µM)?
A: 0.0581

Q: And the relative viability (HCC-15; first compound 5 µM)?
A: 0.435

Q: What about the relative viability (HCC-15; first compound 15.81 µM) of the same compound?
A: 0.439

Q: What about the relative viability (HCC-15; first compound 50 µM) of the same compound?
A: 0.414

Q: What about the relative viability (HCC-15; first compound 158.11 µM) of the same compound?
A: 0.178

Q: What about the relative viability (HCC-15; first compound 500 µM) of the same compound?
A: 0.0244

Q: And the relative viability (HCC-366; first compound 5 µM)?
A: 0.554

Q: And the relative viability (HCC-366; first compound 15.81 µM)?
A: 0.567

Q: And the relative viability (HCC-366; first compound 50 µM)?
A: 0.651

Q: What about the relative viability (HCC-366; first compound 158.11 µM) of the same compound?
A: 0.239

Q: And the relative viability (HCC-366; first compound 500 µM)?
A: 0.0045

Q: And the relative viability (HCC-827; first compound 5 µM)?
A: 0.361

Q: What about the relative viability (HCC-827; first compound 15.81 µM) of the same compound?
A: 0.374

Q: And the relative viability (HCC-827; first compound 50 µM)?
A: 0.41

Q: What about the relative viability (HCC-827; first compound 158.11 µM) of the same compound?
A: 0.318

Q: And the relative viability (HCC-827; first compound 500 µM)?
A: 0.185
